According to patent US12138267B2, “Methods of treating respiratory depression modulated by a non-opioid agent” (Enalare Therapeutics Inc., priority 2021, dated 2024):
“Also recorded” adds a separate entry of the source. Like-named read-outs stand apart in the source and are kept apart here.

How the values were obtained:
healthy participants [1] = tested on: healthy participants
healthy participants [2] = conditions: cited from earlier work
[3] = Pharmacokinetics of Compound A, plasma concentrations after IV infusion; format: in vivo, human; conditions: for AUC(0-inf) / AUC(0-t) / clearance / Cmax / half-life / Tmax: both sexes, human, plasma, intravenous
Method: (§1) Subjects underwent 3 separate treatment periods. […] PD will be unblinded for treatment but not subject. […] Participant Disposition
Pharmacokinetic samples were measured up to 24 hours after the start of the IV infusion. […] Therefore, a fast decrease in concentration was observed, followed by a slow […].

healthy participants [4] = experiment: Safety and tolerability; format: in vivo, human
Source text: as §1
Moreover, the only participant who developed phlebitis received placebo. […] No clinically meaningful differences between treatments were identified in any other safety parameter.

healthy participants [5] = experiment: Sedation (BIS), cardiovascular response and arterial blood gases; format: in vivo, human; conditions: versus placebo
[6] = Compound A (dose not given; third treatment), first hypoxic measurement under hypercapnic conditions, without propofol
[7] = Compound A (dose not given; third treatment), hypoxic/hypercapnic measurement during propofol high dose
[8] = Compound A low dose, first hypoxic measurement under hypercapnic conditions, without propofol
[9] = Compound A low dose, hypoxic/hypercapnic measurement during propofol high dose

CCCNc1nc(NCCC)nc(N(C)OC)n1 [Compound A]
Minute ventilation during hypoxic measurement (healthy participants [1]; [6]): 38.8 L/min | Minute ventilation, pre-hypoxic baseline (healthy participants [1]; [6]): 8.5 L/min | Minute ventilation during hypoxic measurement (healthy participants [1]; [7]): 27.4 L/min | Minute ventilation, pre-hypoxic baseline (healthy participants [1]; [7]): 8.4 L/min | ETCO2 difference prior to each hypoxic measurement (healthy participants [1]; Compound A high dose compared to placebo and low dose): approximately 3 mmHg | Increase in minute ventilation induced by hypercapnia (healthy participants [1]; Compound A high dose group, during high dose propofol): more pronounced | Respiratory rate at pre-hypoxic timepoints (healthy participants [1]; Compound A high dose, during propofol infusion): difference between Compound A high dose compared to placebo and Compound A low dose could be observed | ETCO2 compared to placebo (healthy participants [1]; Compound A low dose): comparable to placebo treatment | Hypoxic Sensitivity, First LSM of contrast (healthy participants [1]; Compound A low dose (2 mg/kg/h 10 min then 0.4 mg/kg/h 260 min IV)): 0.747 L/min/% | Minute ventilation during hypoxic measurement (healthy participants [1]; [8]): 30.3 L/min | Minute ventilation, pre-hypoxic baseline (healthy participants [1]; [8]): 8.1 L/min | Minute ventilation during hypoxic measurement (healthy participants [1]; [9]): 15.0 L/min | Minute ventilation, pre-hypoxic baseline (healthy participants [1]; [9]): 6.3 L/min | Hypoxic sensitivity compared to placebo (healthy participants [1]; both with and without co-administration of propofol): increased hypoxic sensitivity compared to placebo | Hypoxic Sensitivity, First LSM of contrast (healthy participants [1]; high dose (2 mg/kg/h 20 min then 1.1 mg/kg/h 250 min IV)): 1.179 L/min/% | Hypoxic Sensitivity, Estimate of the difference (healthy participants [1]; high dose minus placebo): 0.575 L/min/% | Hypoxic sensitivity during propofol (healthy participants [1]; in vivo, 1.1 mg/kg): remain similar to pre-propofol values | Hypoxic Sensitivity, Estimate of the difference (healthy participants [1]; low dose minus placebo): 0.144 L/min/% | Ventilatory stimulation (healthy participants [2]; high dose (1.1 mg/kg/h), healthy participants, Roozekrans et al., 2014): clear ventilatory stimulation | Stimulatory effects on minute ventilation (healthy participants [2]; low dose (0.4 mg/kg/h), McLeod et al., 2014): no/minimal stimulatory effects on minute ventilation | Nausea in previous studies (healthy participants [2]; previous studies): nausea was associated with Compound A administration | AUCinf Min ([3]; ENA-001 high dose, N 12): 6235 ng·h/mL | AUClast Max ([3]; ENA-001 high dose, N 12): 13169 ng·h/mL | AUClast Min ([3]; ENA-001 high dose, N 12): 6169 ng·h/mL | CL Max ([3]; ENA-001 high dose, N 12): 67.8 L/h | CL Min ([3]; ENA-001 high dose, N 12): 23.8 L/h | Cmax Min ([3]; ENA-001 high dose, N 12): 1090 ng/mL | Cmin Geometric Mean ([3]; ENA-001 high dose, N 12): 867.4 ng/mL | Cmin Max ([3]; ENA-001 high dose, N 12): 1230 ng/mL | Cmin Mean ([3]; ENA-001 high dose, N 12): 886.6 ng/mL | Cmin Median ([3]; ENA-001 high dose, N 12): 859 ng/mL | Cmin Min ([3]; ENA-001 high dose, N 12): 601 ng/mL | t1/2 Max ([3]; ENA-001 high dose, N 12): 8.40 h | t1/2 Min ([3]; ENA-001 high dose, N 12): 3.39 h | tmax Max ([3]; ENA-001 high dose, N 12): 4.50 h | tmax Min ([3]; ENA-001 high dose, N 12): 1.92 h | AUCinf Max ([3]; ENA-001 low dose, N 12): 3148 ng·h/mL | AUCinf Min ([3]; ENA-001 low dose, N 12): 2155 ng·h/mL | AUClast Max ([3]; ENA-001 low dose, N 12): 3059 ng·h/mL | AUClast Min ([3]; ENA-001 low dose, N 12): 2151 ng·h/mL | CL Max ([3]; ENA-001 low dose, N 12): 75.5 L/h | CL Min ([3]; ENA-001 low dose, N 12): 41.9 L/h | Cmax Max ([3]; ENA-001 low dose, N 12): 563 ng/mL | Cmax Min ([3]; ENA-001 low dose, N 12): 375 ng/mL | Cmin Geometric Mean ([3]; ENA-001 low dose, N 12): 299.6 ng/mL | Cmin Max ([3]; ENA-001 low dose, N 12): 379 ng/mL | Cmin Mean ([3]; ENA-001 low dose, N 12): 302.3 ng/mL | Cmin Median ([3]; ENA-001 low dose, N 12): 296 ng/mL | Cmin Min ([3]; ENA-001 low dose, N 12): 251 ng/mL | t1/2 Max ([3]; ENA-001 low dose, N 12): 6.99 h | t1/2 Min ([3]; ENA-001 low dose, N 12): 3.00 h | tmax Max ([3]; ENA-001 low dose, N 12): 4.50 h | tmax Min ([3]; ENA-001 low dose, N 12): 3.33 h | Plasma values at 24 hours post-dose ([3]; all participants, both dose levels): above the LLOQ | AUC(0-inf) ([3]; ENA-001 high dose, N 12, read-out: AUCinf Geometric Mean): 8440 ng·h/mL | AUC(0-inf) ([3]; ENA-001 high dose, N 12, read-out: AUCinf Mean): 8710 ng·h/mL | AUC(0-inf) ([3]; ENA-001 high dose, N 12, read-out: AUCinf Median): 7800 ng·h/mL | AUC(0-t) ([3]; ENA-001 high dose, N 12, read-out: AUClast Geometric Mean): 8240 ng·h/mL | AUC(0-t) ([3]; ENA-001 high dose, N 12, read-out: AUClast Mean): 8500 ng·h/mL | AUC(0-t) ([3]; ENA-001 high dose, N 12, read-out: AUClast Median): 7540 ng·h/mL | clearance ([3]; ENA-001 high dose, N 12, read-out: CL Geometric Mean (converted)): 735 mL/min | clearance ([3]; ENA-001 high dose, N 12, read-out: CL Mean (converted)): 756 mL/min | clearance ([3]; ENA-001 high dose, N 12, read-out: CL Median (converted)): 772 mL/min | Cmax ([3]; ENA-001 high dose, N 12, read-out: Cmax Geometric Mean): 1510 ng/mL | Cmax ([3]; ENA-001 high dose, N 12, read-out: Cmax Mean): 1560 ng/mL | Cmax ([3]; ENA-001 high dose, N 12, read-out: Cmax Median): 1520 ng/mL | half-life ([3]; ENA-001 high dose, N 12, read-out: t1/2 Geometric Mean (converted)): 5.49 h | half-life ([3]; ENA-001 high dose, N 12, read-out: t1/2 Mean (converted)): 5.64 h | half-life ([3]; ENA-001 high dose, N 12, read-out: t1/2 Median (converted)): 5.63 h | Tmax ([3]; ENA-001 high dose, N 12, read-out: tmax Geometric Mean): 3.84 h | Tmax ([3]; ENA-001 high dose, N 12, read-out: tmax Mean): 3.96 h | Tmax ([3]; ENA-001 high dose, N 12, read-out: tmax Median): 4.36 h | AUC(0-inf) ([3]; ENA-001 low dose, N 12, read-out: AUCinf Geometric Mean): 2660 ng·h/mL | AUC(0-inf) ([3]; ENA-001 low dose, N 12, read-out: AUCinf Mean): 2670 ng·h/mL | AUC(0-inf) ([3]; ENA-001 low dose, N 12, read-out: AUCinf Median): 2650 ng·h/mL | AUC(0-t) ([3]; ENA-001 low dose, N 12, read-out: AUClast Geometric Mean): 2610 ng·h/mL | AUC(0-t) ([3]; ENA-001 low dose, N 12, read-out: AUClast Mean): 2630 ng·h/mL | AUC(0-t) ([3]; ENA-001 low dose, N 12, read-out: AUClast Median): 2630 ng·h/mL | clearance ([3]; ENA-001 low dose, N 12, read-out: CL Geometric Mean (converted)): 918 mL/min | clearance ([3]; ENA-001 low dose, N 12, read-out: CL Mean (converted)): 929 mL/min | clearance ([3]; ENA-001 low dose, N 12, read-out: CL Median (converted)): 885 mL/min | Cmax ([3]; ENA-001 low dose, N 12, read-out: Cmax Geometric Mean): 463 ng/mL | Cmax ([3]; ENA-001 low dose, N 12, read-out: Cmax Mean): 468 ng/mL | Cmax ([3]; ENA-001 low dose, N 12, read-out: Cmax Median): 477 ng/mL | half-life ([3]; ENA-001 low dose, N 12, read-out: t1/2 Geometric Mean (converted)): 4.99 h | half-life ([3]; ENA-001 low dose, N 12, read-out: t1/2 Mean (converted)): 5.1 h | half-life ([3]; ENA-001 low dose, N 12, read-out: t1/2 Median (converted)): 5.05 h | Tmax ([3]; ENA-001 low dose, N 12, read-out: tmax Geometric Mean): 4.25 h | Tmax ([3]; ENA-001 low dose, N 12, read-out: tmax Mean): 4.26 h | Tmax ([3]; ENA-001 low dose, N 12, read-out: tmax Median): 4.33 h | AUC(0-inf) ([3]; high dose, read-out: highest individual AUCinf): 13800 ng·h/mL | Cmax ([3]; high dose, read-out: highest individual Cmax): 2600 ng/mL | AUC(0-inf) ([3]; high dose, read-out: mean (±SD) AUCinf): 8710 ± 2420 ng·h/mL | Cmax ([3]; high dose, read-out: mean (±SD) Cmax): 1560 ± 437 ng/mL | half-life ([3]; high dose, read-out: range of apparent terminal t1/2): 3.39 to 8.4 h | Tmax ([3]; high dose, read-out: tmax (mean peak concentrations)): 3.96 h | AUC(0-inf) ([3]; low dose, read-out: mean (±SD) AUCinf): 2670 ± 330 ng·h/mL | Cmax ([3]; low dose, read-out: mean (±SD) Cmax): 468 ± 68.2 ng/mL | half-life ([3]; low dose, read-out: range of apparent terminal t1/2): 3 to 6.99 h | Tmax ([3]; low dose, read-out: tmax (mean peak concentrations)): 4.26 h | Plasma concentration decline after infusion stop ([3]; from 4 hour 30 minutes onwards): bi-exponential decline | Average tmin ([3]; high dose): 1.133 h | Geometric mean Cav30-270 min (average arterial plasma concentration during 30-270 min) ([3]; high dose): 1161.69 ng/mL | Maximum concentration on average following IV infusion loading dose ([3]; high dose, 20 minutes loading dose 2.0 mg/kg/h): 1162.833 ng/mL | average Compound A concentration per propofol dosing interval ([3]; high dose, high propofol 200-270 min): 1412.28 ng/mL | average Compound A concentration per propofol dosing interval ([3]; high dose, low propofol 115-185 min): 1206.27 ng/mL | average Compound A concentration per propofol dosing interval ([3]; high dose, no propofol 30-100 min): 971.79 ng/mL | Effect of propofol on Compound A concentrations ([3]; in vivo): No apparent effect | Dose proportionality of PK ([3]; investigated dosing range, dose normalised AUC and Cav): Dose proportionality of PK over the investigated dosing range was apparent; also recorded: Dose proportionality of PK was apparent over the investigated dosing range; also recorded: showed dose proportionality over the investigated dosing range | Average tmin ([3]; low dose): 1.201 h | Geometric mean Cav30-270 min (average arterial plasma concentration during 30-270 min) ([3]; low dose): 366.40 ng/mL | Maximum concentration on average following IV infusion loading dose ([3]; low dose, 10 minutes loading dose 2.0 mg/kg/h): 857.000 ng/mL | average Compound A concentration per propofol dosing interval ([3]; low dose, high propofol 200-270 min): 427.54 ng/mL | average Compound A concentration per propofol dosing interval ([3]; low dose, low propofol 115-185 min): 359.75 ng/mL | average Compound A concentration per propofol dosing interval ([3]; low dose, no propofol 30-100 min): 323.41 ng/mL | Steady state ([3]; within the 260 and 250 minute infusions): steady-state concentrations were not reached; also recorded: did not reach steady state | Nausea probably related to treatment (healthy participants [4]; Compound A high dose, IV ondansetron pre-treatment): single occurrence of mild nausea | Treatment-related SAEs (healthy participants [4]; in vivo): No treatment-related SAEs | Trend in AEs (healthy participants [4]; in vivo): mild infusion site pain and related events | Safety and tolerability (healthy participants [4]; two dose levels, healthy participants): safe and well tolerated; also recorded: favourable safety and tolerability profiles | Cardiovascular response (healthy participants [5]): No clinically meaningful difference on cardiovascular response | Level of propofol-induced sedation / arousal, BIS (healthy participants [5]; with clinically relevant doses of propofol): did not impact the level of the propofol-induced sedation; also recorded: did not lead to a significant difference in arousal compared to placebo
